According to PubChem BioAssay (NCI):
Where “and” joins values, the source holds several entries; their conditions need not be identical. Equal entries are not always repeated.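 Exposure lasted 48 hours, with cells grown in 96-well plates and compounds tested at five concentrations. GI50 = concentration required for 50% inhibition of growth. At the TGI there is no net growth.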

Experiments:
Assay in all cases: DTP human tumour cell line panel, 48 h
MCF7 breast = tested on: MCF7 breast
SR leukemia = tested on: SR leukemia
OVCAR-8 ovarian = tested on: OVCAR-8 ovarian
HS 578T breast = tested on: HS 578T breast
T-47D breast = tested on: T-47D breast
SF-539 CNS = tested on: SF-539 CNS
NCI-H23 lung = tested on: NCI-H23 lung
CCRF-CEM leukemia = tested on: CCRF-CEM leukemia

Row | Compound | GI50 (MCF7 breast) | TGI (MCF7 breast) | GI50 (SR leukemia) | TGI (SR leukemia) | GI50 (OVCAR-8 ovarian) | TGI (OVCAR-8 ovarian) | GI50 (HS 578T breast) | TGI (HS 578T breast) | GI50 (T-47D breast) | TGI (T-47D breast) | GI50 (SF-539 CNS) | TGI (SF-539 CNS) | GI50 (NCI-H23 lung) | TGI (NCI-H23 lung) | GI50 (CCRF-CEM leukemia) | TGI (CCRF-CEM leukemia)
1 | CC[C@]12C=CCN3CC[C@@]4(c5ccc(OC)cc5N(C)[C@H]4[C@@](O)(C(=O)OC)[C@@H]1OC(=O)CCC[P+](c1ccccc1)(c1ccccc1)c1ccccc1)[C@@H]32 | 0.254 µM and 0.354 µM | 5.21 µM and 1.79 µM | 0.379 µM and 0.438 µM | 7.07 µM and 1.97 µM | 1.45 µM and 1.59 µM | 6.77 µM and 9.71 µM | 1.21 µM and 1.15 µM | 6.71 µM and 5.07 µM | 0.29 µM and 0.224 µM | 6.56 µM and 0.977 µM | 0.648 µM and 0.769 µM | 5.78 µM and 4.78 µM | 1.11 µM and 0.984 µM | 5.5 µM and 7.77 µM | 0.64 µM and 0.609 µM | 5.44 µM and 2.68 µM
2 | Cn1c(=O)c2c(nc(Nc3cc(=O)[nH]c(=O)[nH]3)n2Cc2ccccc2)n(C)c1=O | > 100 µM | > 100 µM | > 100 µM | > 100 µM | > 100 µM | > 100 µM | > 100 µM | > 100 µM | > 100 µM | > 100 µM | > 100 µM | > 100 µM | > 100 µM | > 100 µM | > 100 µM | > 100 µM
3 | COc1cc(C(=O)c2cc(C)c3[nH]c4ccc(Cl)cc4c3c2C)cc(OC)c1OC | 0.0352 µM | 13.2 µM | 0.0493 µM | 97.1 µM | 0.0439 µM | 10.7 µM | 0.0364 µM | 10.6 µM | 1.84 µM | 39.3 µM | 0.0284 µM | 0.461 µM | 0.0444 µM | 7.43 µM | 0.0399 µM | > 100 µM
4 | CC(C)(C)C(=O)OCOP(=O)(OCOC(=O)C(C)(C)C)C1CCCN(O)C1=O (stereo unspecified) | 0.338 µM | 3.86 µM | 0.433 µM | 7.87 µM | 0.305 µM | 8.91 µM | 0.314 µM | 8.27 µM | 0.543 µM | 17.8 µM | 1.52 µM | 11.8 µM | 0.564 µM | 3.4 µM | 0.185 µM | 2.3 µM
5 | O=C(CCCn1ccnc1[N+](=O)[O-])NCCn1cncc1[N+](=O)[O-] | – | > 100 µM | – | > 100 µM | – | > 100 µM | – | > 100 µM | – | > 100 µM | – | > 100 µM | – | > 100 µM | – | > 100 µM
6 | CCOC(=O)/C=C/C(C(=O)/C=C/c1ccc(OC2CCCCO2)c(OC)c1)=C(O)\C=C\c1ccc(OC2CCCCO2)c(OC)c1 (stereo unspecified) | 4.42 µM | 36.2 µM | – | – | 2.51 µM | 6.2 µM | 12.3 µM | 80.5 µM | 15.1 µM | 60.3 µM | 20.3 µM | 53.1 µM | 5.9 µM | 18.7 µM | 2.69 µM | 8.35 µM
7 | Oc1ccc(Cl)cc1Cc1cc(Cl)cc(Cl)c1O | 3.51 µM | 20.3 µM | 5.02 µM | 27.4 µM | 12.8 µM | 76.4 µM | 2.61 µM | 8.97 µM | 2.47 µM | 8.68 µM | 2.33 µM | 6.65 µM | 3.32 µM | 10.6 µM | 6.53 µM | 88 µM
8 | COc1ccc(C(=O)c2cc(OC)c(C)c(OC)c2)cc1OC(=O)CCl | 0.361 µM | > 100 µM | 0.0305 µM | 13.2 µM | 0.507 µM | > 100 µM | 0.314 µM | > 100 µM | 3.26 µM | > 79 µM | 0.172 µM | 0.58 µM | 0.558 µM | > 100 µM | 0.331 µM | > 100 µM
9 | CC(=O)OC1Oc2ccccc2-c2oc(=O)c(-c3cc(=O)oc4cc(O)ccc34)cc21 (stereo unspecified) | 29.9 µM | > 100 µM | 2.65 µM | 6.5 µM | 19.8 µM | > 100 µM | 17.9 µM | 52 µM | 12.1 µM | 48.4 µM | 17.4 µM | 38.2 µM | 5.53 µM | 25.6 µM | 9.38 µM | 40.8 µM
10 | O=C(Nc1ccc(OS(=O)(=O)c2ccccc2)cc1)C12CC3CC(CC(C3)C1)C2 | 3.26 µM | > 100 µM | 3.6 µM | > 100 µM | > 100 µM | > 100 µM | 7.29 µM | > 100 µM | 3.57 µM | > 100 µM | 0.965 µM | > 100 µM | 6.68 µM | > 100 µM | 3.73 µM | > 100 µM
11 | COc1ccc2c(c1)CCC1C2CC[C@@]2(C)C1CC1=CC(COC(C)=O)C3C(=O)c4ccccc4C(=O)C3C12 (stereo partly specified) | > 100 µM | > 100 µM | > 100 µM | > 100 µM | > 100 µM | > 100 µM | 89 µM | > 100 µM | 90.6 µM | > 100 µM | > 100 µM | > 100 µM | > 100 µM | > 100 µM | > 100 µM | > 100 µM
12 | O=C(c1ccccc1)c1cc(Cl)ccc1OCCCCN1CCN(CCCCOc2ccc(Cl)cc2C(=O)c2ccccc2)CC1 | 1.98 µM | 4.83 µM | 1.83 µM | 4.89 µM | 1.82 µM | 3.37 µM | 2.19 µM | 4.43 µM | 4.59 µM | 22.4 µM | 4.8 µM | 15.6 µM | 4.73 µM | 18.3 µM | – | –
13 | Cc1nnc(S(=O)(=O)c2ccc(N=Nc3c(N)nc(N)nc3N)cc2)s1 | – | > 100 µM | – | > 100 µM | – | > 100 µM | – | > 100 µM | – | > 100 µM | – | > 100 µM | – | > 100 µM | – | > 100 µM
14 | CNCCNc1c2c(c(NCCNC)c3c(CN(C)C)c[nH]c13)C(=O)c1ccccc1C2=O | 0.922 µM | 6.7 µM | – | – | 3.28 µM | 13.6 µM | 1.7 µM | 7.92 µM | 32 µM | > 57.1 µM | 4.46 µM | 17.1 µM | 2.22 µM | – | 0.716 µM | 34.2 µM
15 | CCC[CH2][Sn]([CH2]CCC)([CH2]CCC)[O]C(=O)CC | – | – | – | – | 0.205 µM | 0.444 µM | 0.18 µM | 0.708 µM | 0.166 µM | 0.385 µM | 0.185 µM | 0.38 µM | 0.149 µM | 0.615 µM | – | –
